Reference: US11382328B2, “Rapid drug discovery methods for pathogen inactivation” (priority 2019, dated 2022)

Tested on: E. coli strain W3110
Experiment: Synergy assays: Biolog chemical sensitivity panels with Group IB metal, coefficient of drug interaction (CDI) from relative growth
Assay type: cell-based
Details: for CDI (coefficient of drug interaction), copper mixed with biocide: Copper (mM) section; for CDI (coefficient of drug interaction), gold + biocide: Gold (μM)
[1] = 1st of 3 copper concentrations (value not shown), 1st of four biocide concentrations
[2] = 1st of 3 copper concentrations (value not shown), 2nd of four biocide concentrations
[3] = 1st of 3 copper concentrations (value not shown), 3rd of four biocide concentrations
[4] = 1st of 3 copper concentrations (value not shown), 4th of four biocide concentrations
[5] = 2nd of 3 copper concentrations (value not shown), 1st of four biocide concentrations
[6] = 2nd of 3 copper concentrations (value not shown), 2nd of four biocide concentrations
[7] = 2nd of 3 copper concentrations (value not shown), 3rd of four biocide concentrations
[8] = 2nd of 3 copper concentrations (value not shown), 4th of four biocide concentrations
[9] = 3rd of 3 copper concentrations (value not shown), 1st of four biocide concentrations
[10] = 3rd of 3 copper concentrations (value not shown), 2nd of four biocide concentrations
[11] = 3rd of 3 copper concentrations (value not shown), 3rd of four biocide concentrations
[12] = 3rd of 3 copper concentrations (value not shown), 4th of four biocide concentrations
[13] = Gold section of Table 5, first of three gold concentrations (μM, value not given), biocide concentration 2 of 4
[14] = Gold section of Table 5, first of three gold concentrations (μM, value not given), biocide concentration 3 of 4
[15] = Gold section of Table 5, first of three gold concentrations (μM, value not given), biocide concentration 4 of 4
[16] = Gold section of Table 5, second of three gold concentrations (μM, value not given), biocide concentration 2 of 4
[17] = Gold section of Table 5, second of three gold concentrations (μM, value not given), biocide concentration 3 of 4
[18] = Gold section of Table 5, second of three gold concentrations (μM, value not given), biocide concentration 4 of 4
[19] = Gold section of Table 5, third of three gold concentrations (μM, value not given), biocide concentration 2 of 4
[20] = Gold section of Table 5, third of three gold concentrations (μM, value not given), biocide concentration 3 of 4
[21] = Gold section of Table 5, third of three gold concentrations (μM, value not given), biocide concentration 4 of 4
[22] = Silver 0.5 μM, 2nd of four biocide concentrations, E. coli
[23] = Silver 0.5 μM, 3rd of four biocide concentrations, E. coli
[24] = Silver 0.5 μM, 4th of four biocide concentrations, E. coli
[25] = Silver 1.0 μM, 2nd of four biocide concentrations, E. coli
[26] = Silver 1.0 μM, 3rd of four biocide concentrations, E. coli
[27] = Silver 1.0 μM, 4th of four biocide concentrations, E. coli
[28] = Silver 5.0 μM, 2nd of four biocide concentrations, E. coli
[29] = Silver 5.0 μM, 3rd of four biocide concentrations, E. coli
[30] = Silver 5.0 μM, 4th of four biocide concentrations, E. coli
[31] = Copper (mM), 1st of 3 copper concentrations (head line not shown), biocide concentration 3 of 4, E. coli
[32] = Copper (mM), 1st of 3 copper concentrations (head line not shown), biocide concentration 4 of 4, E. coli
[33] = Copper (mM), 2nd of 3 copper concentrations (head line not shown), biocide concentration 3 of 4, E. coli
[34] = Copper (mM), 2nd of 3 copper concentrations (head line not shown), biocide concentration 4 of 4, E. coli
[35] = Copper (mM), 3rd of 3 copper concentrations (head line not shown), biocide concentration 3 of 4, E. coli
[36] = Copper (mM), 3rd of 3 copper concentrations (head line not shown), biocide concentration 4 of 4, E. coli
[37] = first of 3 gold concentrations, biocide concentration 3 of 4
[38] = first of 3 gold concentrations, biocide concentration 4 of 4
[39] = second of 3 gold concentrations, biocide concentration 3 of 4
[40] = third of 3 gold concentrations, biocide concentration 3 of 4
[41] = third of 3 gold concentrations, biocide concentration 4 of 4
[42] = Silver 0.5 μM, biocide concentration 3 of 4
[43] = Silver 0.5 μM, biocide concentration 4 of 4
[44] = Silver 1.0 μM, biocide concentration 3 of 4
[45] = Silver 1.0 μM, biocide concentration 4 of 4
[46] = Silver 5.0 μM, biocide concentration 3 of 4
[47] = Silver 5.0 μM, biocide concentration 4 of 4

## protamine sulfate
[1]
  CDI (coefficient of drug interaction), copper mixed with biocide: 0.79
[2]
  CDI (coefficient of drug interaction), copper mixed with biocide: Tox
[3]
  CDI (coefficient of drug interaction), copper mixed with biocide: Tox
[4]
  CDI (coefficient of drug interaction), copper mixed with biocide: Tox
[5]
  CDI (coefficient of drug interaction), copper mixed with biocide: 1.09
[6]
  CDI (coefficient of drug interaction), copper mixed with biocide: 1.26
[7]
  CDI (coefficient of drug interaction), copper mixed with biocide: Tox
[8]
  CDI (coefficient of drug interaction), copper mixed with biocide: Tox
[9]
  CDI (coefficient of drug interaction), copper mixed with biocide: 0.56
[10]
  CDI (coefficient of drug interaction), copper mixed with biocide: Tox
[11]
  CDI (coefficient of drug interaction), copper mixed with biocide: Tox
[12]
  CDI (coefficient of drug interaction), copper mixed with biocide: Tox
[13]
  CDI (coefficient of drug interaction): 0.96
[14]
  CDI (coefficient of drug interaction): 0.49
[15]
  CDI (coefficient of drug interaction): Tox
Gold section of Table 5, second of three gold concentrations (μM, value not given), biocide concentration 1 of 4
  CDI (coefficient of drug interaction): 0.99
[16]
  CDI (coefficient of drug interaction): 0.94
[17]
  CDI (coefficient of drug interaction): 2.22
[18]
  CDI (coefficient of drug interaction): Tox
Gold section of Table 5, third of three gold concentrations (μM, value not given), biocide concentration 1 of 4
  CDI (coefficient of drug interaction): 0.92
[19]
  CDI (coefficient of drug interaction): 1.09
[20]
  CDI (coefficient of drug interaction): 1.56
[21]
  CDI (coefficient of drug interaction): Tox
Silver 0.5 μM, 1st of four biocide concentrations, E. coli
  CDI (coefficient of drug interaction), silver + biocide: 1.10
[22]
  CDI (coefficient of drug interaction), silver + biocide: 1.15
[23]
  CDI (coefficient of drug interaction), silver + biocide: Tox
[24]
  CDI (coefficient of drug interaction), silver + biocide: Tox
Silver 1.0 μM, 1st of four biocide concentrations, E. coli
  CDI (coefficient of drug interaction), silver + biocide: 0.95
[25]
  CDI (coefficient of drug interaction), silver + biocide: 1.00
[26]
  CDI (coefficient of drug interaction), silver + biocide: Tox
[27]
  CDI (coefficient of drug interaction), silver + biocide: Tox
Silver 5.0 μM, 1st of four biocide concentrations, E. coli
  CDI (coefficient of drug interaction), silver + biocide: 0.84
[28]
  CDI (coefficient of drug interaction), silver + biocide: 0.90
[29]
  CDI (coefficient of drug interaction), silver + biocide: Tox
[30]
  CDI (coefficient of drug interaction), silver + biocide: Tox

## O=C1C=C2C(=CCOC2O)O1 (stereo not shown) [patulin]
[1]
  CDI (coefficient of drug interaction), copper mixed with biocide: Tox
[2]
  CDI (coefficient of drug interaction), copper mixed with biocide: Tox
[3]
  CDI (coefficient of drug interaction), copper mixed with biocide: Tox
[4]
  CDI (coefficient of drug interaction), copper mixed with biocide: Tox
[5]
  CDI (coefficient of drug interaction), copper mixed with biocide: Tox
[6]
  CDI (coefficient of drug interaction), copper mixed with biocide: Tox
[7]
  CDI (coefficient of drug interaction), copper mixed with biocide: Tox
[8]
  CDI (coefficient of drug interaction), copper mixed with biocide: Tox
[9]
  CDI (coefficient of drug interaction), copper mixed with biocide: Tox
[10]
  CDI (coefficient of drug interaction), copper mixed with biocide: Tox
[11]
  CDI (coefficient of drug interaction), copper mixed with biocide: Tox
[12]
  CDI (coefficient of drug interaction), copper mixed with biocide: Tox
[13]
  CDI (coefficient of drug interaction): Tox
[14]
  CDI (coefficient of drug interaction): Tox
[15]
  CDI (coefficient of drug interaction): Tox
[16]
  CDI (coefficient of drug interaction): Tox
[17]
  CDI (coefficient of drug interaction): Tox
[18]
  CDI (coefficient of drug interaction): Tox
[19]
  CDI (coefficient of drug interaction): Tox
[20]
  CDI (coefficient of drug interaction): Tox
[21]
  CDI (coefficient of drug interaction): Tox
[22]
  CDI (coefficient of drug interaction), silver + biocide: Tox
[23]
  CDI (coefficient of drug interaction), silver + biocide: Tox
[24]
  CDI (coefficient of drug interaction), silver + biocide: Tox
[25]
  CDI (coefficient of drug interaction), silver + biocide: Tox
[26]
  CDI (coefficient of drug interaction), silver + biocide: Tox
[27]
  CDI (coefficient of drug interaction), silver + biocide: Tox
[28]
  CDI (coefficient of drug interaction), silver + biocide: Tox
[29]
  CDI (coefficient of drug interaction), silver + biocide: Tox
[30]
  CDI (coefficient of drug interaction), silver + biocide: Tox

## NCC(=O)NO [glycine hydroxamate]
Copper (mM), 1st of 3 copper concentrations (head line not shown), biocide concentration 1 of 4, E. coli
  CDI (coefficient of drug interaction): 1.36
Copper (mM), 1st of 3 copper concentrations (head line not shown), biocide concentration 2 of 4, E. coli
  CDI (coefficient of drug interaction): Tox
[31]
  CDI (coefficient of drug interaction): Tox
[32]
  CDI (coefficient of drug interaction): Tox
Copper (mM), 2nd of 3 copper concentrations (head line not shown), biocide concentration 1 of 4, E. coli
  CDI (coefficient of drug interaction): 1.06
Copper (mM), 2nd of 3 copper concentrations (head line not shown), biocide concentration 2 of 4, E. coli
  CDI (coefficient of drug interaction): 0.47
[33]
  CDI (coefficient of drug interaction): Tox
[34]
  CDI (coefficient of drug interaction): Tox
Copper (mM), 3rd of 3 copper concentrations (head line not shown), biocide concentration 1 of 4, E. coli
  CDI (coefficient of drug interaction): 1.73
Copper (mM), 3rd of 3 copper concentrations (head line not shown), biocide concentration 2 of 4, E. coli
  CDI (coefficient of drug interaction): Tox
[35]
  CDI (coefficient of drug interaction): Tox
[36]
  CDI (coefficient of drug interaction): Tox
First of 3 gold concentrations, biocide concentration 1 of 4
  CDI (coefficient of drug interaction), gold + biocide: 1.08
First of 3 gold concentrations, biocide concentration 2 of 4
  CDI (coefficient of drug interaction), gold + biocide: 0.95
[37]
  CDI (coefficient of drug interaction), gold + biocide: 1.13
[38]
  CDI (coefficient of drug interaction), gold + biocide: 1.01
Second of 3 gold concentrations, biocide concentration 1 of 4
  CDI (coefficient of drug interaction), gold + biocide: 1.07
Second of 3 gold concentrations, biocide concentration 2 of 4
  CDI (coefficient of drug interaction), gold + biocide: 1.11
[39]
  CDI (coefficient of drug interaction), gold + biocide: 1.19
Third of 3 gold concentrations, biocide concentration 1 of 4
  CDI (coefficient of drug interaction), gold + biocide: 1.00
Third of 3 gold concentrations, biocide concentration 2 of 4
  CDI (coefficient of drug interaction), gold + biocide: 1.07
[40]
  CDI (coefficient of drug interaction), gold + biocide: 1.39
[41]
  CDI (coefficient of drug interaction), gold + biocide: 1.22
Silver 0.5 μM, biocide concentration 1 of 4
  CDI: 0.74
Silver 0.5 μM, biocide concentration 2 of 4
  CDI: 0.72
[42]
  CDI: 0.79
[43]
  CDI: 0.76
Silver 1.0 μM, biocide concentration 1 of 4
  CDI: 0.95
Silver 1.0 μM, biocide concentration 2 of 4
  CDI: 0.99
[44]
  CDI: 0.95
[45]
  CDI: 1.07
Silver 5.0 μM, biocide concentration 1 of 4
  CDI: 1.00
Silver 5.0 μM, biocide concentration 2 of 4
  CDI: 0.95
[46]
  CDI: 1.09
[47]
  CDI: 0.88

## c1ccc(-c2nn(-c3ccccc3)[n+](-c3cccc4ccccc34)n2)cc1 [Tetrazolium violet]
[31]
  CDI (coefficient of drug interaction): Tox
[32]
  CDI (coefficient of drug interaction): Tox
[33]
  CDI (coefficient of drug interaction): Tox
[34]
  CDI (coefficient of drug interaction): Tox
[35]
  CDI (coefficient of drug interaction): Tox
[36]
  CDI (coefficient of drug interaction): Tox
[37]
  CDI (coefficient of drug interaction), gold + biocide: Tox
[38]
  CDI (coefficient of drug interaction), gold + biocide: Tox
[39]
  CDI (coefficient of drug interaction), gold + biocide: Tox
Second of 3 gold concentrations, biocide concentration 4 of 4
  CDI (coefficient of drug interaction), gold + biocide: Tox
[40]
  CDI (coefficient of drug interaction), gold + biocide: Tox
[41]
  CDI (coefficient of drug interaction), gold + biocide: Tox
[42]
  CDI: Tox
[43]
  CDI: Tox
[44]
  CDI: Tox
[45]
  CDI: Tox
[46]
  CDI: Tox
[47]
  CDI: Tox
